The target of one test is T1, human NK-1 receptors (Homo sapiens, UniProt P25103).
T1 construct: expressed in transfected cells; host or cells: CHO cells (membrane preparation)
Description: Binding affinity to human NK-1 receptors ([3H]-substance P displacement, membranes of CHO cells). To be noted: membrane preparation of CHO cells expressing human NK-1 receptor, Ki calculated from IC50, read-out: In vitro binding to human NK-1 receptors - Ki value. As to the method: 1. Determination of the binding power of the test substances to NK-1 receptors.
The affinity of the test substances to human NK-1 receptors was measured in vitro, and the inhibition of the binding of the physiological neurokinin substance P to neurokinin-1 receptors was determined.
The receptor binding studies were performed with [^3 H]-substance P as ligand. For the binding test, different samples of a membrane preparation of CHO cells (=egg cells of the Chinese hamster, […]), which express the human NK-1 receptor, were incubated with a solution of the marked ligand, with the incubation mixtures containing no test substance or additions of different concentrations of test substance. Then, bound and free ligands in each of the samples were separated with the aid of glass-fiber filtration. The fraction remaining in the filter was washed several times with buffer solution, and then the radioactivity of the fraction remaining in the filter was measured using a beta scintillation counter. That concentration which effects half maximum displacement of the bound ligand was determined as IC50 of the respective test substance. From this, the corresponding inhibition constant (Ki value) of the test substance was calculated.
The example numbers listed for the compounds of Formula I relate to the following preparative examples.

Test [1] concerns visceral sensitivity to pain in rats (distension-induced contractions of the abdominal muscles). Briefly: Influencing of the visceral sensitivity to pain: distension-induced abdominal contractions in rats. It is filed as in vivo. The conditions noted are these: rat, subcutaneous, 20 minutes after administration. From the text: 3. Investigation of the activity of the compounds on the visceral sensitivity to pain in rats.
Visceral pain leads to visceral reactions which manifest themselves, inter alia, by contractions of the abdominal muscles. The number of contractions of the abdominal muscles occurring after a mechanical pain stimulus caused by distending the large intestine is thus a measurement for determining the visceral sensitivity to pain.
The inhibiting activity of the test substances on distension-induced abdominal contractions was tested in rats. The distension of the large intestine with an introduced balloon was used as the stimulus; the contraction of the abdominal muscles was measured as response. One hour after the sensitising of the large intestine by instillation of dilute acetic acid (0.6%, 1.5 ml), a latex balloon was introduced and inflated to 100 mbar for 10 minutes. During this time, the contractions of the abdominal muscles were counted. 20 minutes after subcutaneous administration of the test substance, this measurement was repeated. The activity of the test substance was calculated as a percentage reduction in the counted contractions compared with the control. The reductions in the number of abdominal contractions achieved with different doses of the test substance of Example 1 are listed in percentages, relative to the control values (=100%) measured before ingestion of the substance in the following Table 3.

For test [2], the system named is stool passage through the colon of the rat. Briefly: Influencing of colon passage: barium sulfate elimination after oral administration in rats. The test is classed as in vivo. As to the method: 2. Investigation of the activity of the compounds on stool passage through the colon of the rat.
The effects of the test substances on the transport of stools through the large intestine were examined in rats after feeding. After feeding, the beginning of elimination and the mean dwell time of barium sulfate in the colon were determined as a measurement of the colon motility leading to elimination of stools.
After oral administration of the test substance, the animals were administered 2 ml of an 80% barium sulfate suspension via an artificial outlet at the caecum. The animals were placed in metabolism cages, and the faeces were collected at one hour intervals over 24 hours. The content of barium sulfate in the faeces was measured using radiography, and the beginning of elimination of barium sulfate and the mean retention time were determined therefrom. The delays in the beginning of elimination and prolongations of the mean residence time of the barium sulfate achieved in this experimental arrangement with various doses of the test substance of Example 1 can be seen from the following Table 2. The time interval up to the beginning of elimination and the mean retention time are given in percentages relative to the values obtained in a control test without test substance (=100%).

T1 sequence (P25103 whole entry): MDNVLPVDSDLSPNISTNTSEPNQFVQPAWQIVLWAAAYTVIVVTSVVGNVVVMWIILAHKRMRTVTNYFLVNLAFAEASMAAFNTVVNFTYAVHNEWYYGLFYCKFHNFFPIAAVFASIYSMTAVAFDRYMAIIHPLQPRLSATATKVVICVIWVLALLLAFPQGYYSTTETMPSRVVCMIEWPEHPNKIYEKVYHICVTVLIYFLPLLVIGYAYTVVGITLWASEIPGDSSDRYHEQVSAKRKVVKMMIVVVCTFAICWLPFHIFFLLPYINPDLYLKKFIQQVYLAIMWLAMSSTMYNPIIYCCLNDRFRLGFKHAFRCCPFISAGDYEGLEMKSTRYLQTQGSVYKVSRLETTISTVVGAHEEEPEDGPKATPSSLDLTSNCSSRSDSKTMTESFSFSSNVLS

Turning to `COc1ccccc1CN(C)CCCC(=O)N1CCC(c2ccccc2)N(C(=O)c2cc(C(F)(F)F)cc(C(F)(F)F)c2)CC1` (single isomer, unassigned; (-)) [Example 2, (-)-1-(3,5-bistrifluoromethylbenzoyl)-4-{[3-[N-(2-methoxybenzyl)-N-methyl]amino]propylcarbonyl}-7-phenyl-1,4-diazepane], on human NK-1 receptors, the inhibition constant (Ki) is 0.01 µM.

Consider `COc1ccccc1CN(C)CCCC(=O)N1CCC(c2ccccc2)N(C(=O)c2cc(C(F)(F)F)cc(C(F)(F)F)c2)CC1` (stereo not shown) [Example 1, 1-(3,5-bistrifluoromethylbenzoyl)-4-{[3-[N-(2-methoxybenzyl)-N-methyl]amino]propylcarbonyl}-7-phenyl-1,4-diazepane], for which the “Reduction in the number of distension-induced contractions of the abdominal muscles in % relative to control value = 100%” value was found to be 33% in test [1] (10 μmole/kg), 39% in test [1] (21.5 μmole/kg) and 61% in test [1] (100 μmole/kg). Moreover, the “Mean retention time in % relative to control value = 100%” value in test [2] (10 μmole/kg) is reported as 98%; in test [2] (21.5 μmole/kg), 106%; in test [2] (100 μmole/kg) it was 119%. Moreover, the “Time interval until beginning of elimination in % relative to control value = 100%” value in test [2] (10 μmole/kg) was 100%; in test [2] (21.5 μmole/kg), 115%; in test [2] (100 μmole/kg), 138%. Also, the Ki on human NK-1 receptors was 0.012 µM.

Regarding `COc1ccccc1CNCC(=O)N1CCC(c2ccccc2)N(C(=O)c2cc(C)cc(C)c2)CC1` (stereo not shown) [Example 4, 1-(3,5-dimethylbenzoyl)-4-{[N-(2-methoxybenzyl)amino]acetyl}-7-phenyl-1,4-diazepane], the Ki at human NK-1 receptors was 0.008 µM.

Consider `COc1ccccc1CNCCCC(=O)N1CCC(c2ccccc2)N(C(=O)c2cc(C(F)(F)F)cc(C(F)(F)F)c2)CC1` (stereo not shown) [Example 14], for which the inhibitory constant (Ki) at human NK-1 receptors was 0.01 µM.
